Measurements from BindingDB's records for doi:10.1074/jbc.M112.341321 (Council of Scientific and Industrial Research (Csir) Indian …, 2012).

Legend:
Test in all cases: Tautomerase Activity Assay
[1] = molecular target: T1, Macrophage migration inhibitory factor (Plasmodium falciparum (isolate 3D7), UniProt Q8I5C5)
T1 sequence (Q8I5C5 whole entry): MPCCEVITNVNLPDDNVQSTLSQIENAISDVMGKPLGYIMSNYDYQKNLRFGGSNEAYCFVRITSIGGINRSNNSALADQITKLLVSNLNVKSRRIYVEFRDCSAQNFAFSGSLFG
From the text: (§1) The tautomerase activity of MIFs was monitored by following the tautomerization of L-dopachrome methyl ester by the recombinant MIFs in the presence or absence of increasing concentrations of all six limonoids extracted from neem.

[2] = molecular target: T2, Macrophage migration inhibitory factor-like protein (Plasmodium yoelii yoelii, UniProt Q1HEA2)
T2 sequence (Q1HEA2 whole entry): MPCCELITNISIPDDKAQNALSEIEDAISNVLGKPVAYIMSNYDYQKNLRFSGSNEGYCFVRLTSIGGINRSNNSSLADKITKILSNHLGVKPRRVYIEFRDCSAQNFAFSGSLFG
From the text: as §1

[3] = molecular target: T3, Macrophage migration inhibitory factor (Homo sapiens, UniProt P14174)
T3 sequence (P14174 whole entry): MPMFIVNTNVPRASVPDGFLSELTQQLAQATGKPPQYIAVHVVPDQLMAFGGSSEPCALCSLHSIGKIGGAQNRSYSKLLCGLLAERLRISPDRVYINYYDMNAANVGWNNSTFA
From the text: as §1

In the case of `CC(=O)O[C@@H]1C[C@H]2C(C)(C)C(=O)C=C[C@]2(C)[C@H]2CC[C@@]3(C)[C@H](c4ccoc4)C(=O)[C@H]4O[C@]43[C@@]21C` [Epoxyazadiradione], the IC50 [1] is reported as 9.5 µM and the IC50 [2] is reported as 9.8 µM.

`COC(=O)C[C@H]1[C@]2(C)C3=C(C)[C@H](c4ccoc4)C[C@H]3O[C@@H]2[C@H](OC(C)=O)[C@@H]2[C@]1(C)C(=O)C=C[C@@]2(C)C(=O)OC` [Nimbin] was tested, and the IC50 [3] was 17.5 µM, the IC50 [1] was 22.5 µM and the IC50 [2] was 22.4 µM.

Work on `CC(=O)O[C@@H]1C[C@H]2C(C)(C)C(=O)C=C[C@]2(C)[C@H]2CC[C@]3(C)C(=CC(=O)[C@H]3c3ccoc3)[C@@]21C` [Azadiradione] yielded an IC50 [3] of 35.2 µM, an IC50 [1] of 45.6 µM and an IC50 [2] of 43 µM.

For `C/C=C(\C)C(=O)O[C@H]1C[C@@H](OC(C)=O)[C@@]2(C)CO[C@H]3[C@H]4O[C@@H]5C[C@@H](c6ccoc6)C(C)=C5[C@@]4(C)[C@H](CC(=O)OC)[C@]1(C)[C@@H]32` [Salannin], the IC50 [3] was 85.3 µM, the IC50 [1] was 89.5 µM and the IC50 [2] was 95.2 µM.
